Measurements from patent US20260356856A1, “KRAS G12S AND G12C INHIBITORS” (MIRATI THERAPEUTICS, INC., priority 2023, published 2026).

What was measured:
[1] = molecular target: T1, KRas-mediated phosphorylation of ERK in MKN1 cells (Homo sapiens, UniProt P01116); experiment: Inhibition of KRas-mediated phosphorylation of ERK (HTRF), MKN1 cells; type: cell-based; details: MKN1 cells (KRas WT); HTRF pERK; 3 h incubation
T1 construct: pERK HTRF read-out
Procedure: Inhibition of KRas Phosphorylation of ERK (HTRF) by Exemplary Compounds of Formula (Ia) or (Ib)
Cisbio HTRF Advanced pERK Assay Catalog #64AERPEH • Cells: MKN1, PSN1 • Procedure: • 1. Day 1: Seed 6,000 cells/well −25 μl/well in 384-well white solid bottom plate; RPM1_10% FBS. Incubate overnight at 37 °C/5% CO2. • 2.

[2] = molecular target: T2, KRas-mediated phosphorylation of ERK in A549 cells (Homo sapiens, UniProt P01116, G12S); experiment: Inhibition of KRas-mediated phosphorylation of ERK (HTRF), A549 cells; type: cell-based; details: HTRF pERK, 3 h incubation
T2 construct: pERK HTRF read-out
T2 sequence (P01116 1-188 isoform P01116-2 G12S): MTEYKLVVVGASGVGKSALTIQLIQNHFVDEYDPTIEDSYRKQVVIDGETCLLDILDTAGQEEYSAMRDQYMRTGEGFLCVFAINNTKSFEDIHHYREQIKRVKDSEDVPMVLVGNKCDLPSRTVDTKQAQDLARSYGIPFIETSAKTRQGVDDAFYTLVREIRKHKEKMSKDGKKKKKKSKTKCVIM

[3] = molecular target: T3, KRas-mediated phosphorylation of ERK in H358 cells (Homo sapiens, UniProt P01116, G12C); experiment: Inhibition of KRas-mediated phosphorylation of ERK (HTRF), H358 cells; type: cell-based; details: HTRF pERK, 3 h incubation
T3 construct: pERK HTRF read-out
T3 sequence (P01116 1-188 isoform P01116-2 G12C): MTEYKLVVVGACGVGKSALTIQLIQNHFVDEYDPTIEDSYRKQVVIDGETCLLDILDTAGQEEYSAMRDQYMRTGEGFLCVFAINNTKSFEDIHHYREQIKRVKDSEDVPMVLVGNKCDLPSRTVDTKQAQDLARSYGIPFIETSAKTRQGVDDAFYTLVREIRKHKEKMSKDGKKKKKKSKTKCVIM

KRas G12S = molecular target: T4, KRas G12S (Homo sapiens, UniProt P01116, G12S); experiment: KRas binding assay, TR-FRET displacement of Cy5 labelled tracer; details: 60-minute incubation at room temperature, 1% DMSO, pH 7.5
T4 construct: Biotinylated KRas (corresponding to amino acids 1-169, produced at Accelegan Inc.); biotin (biotinylated); purchased Accelegan Inc
T4 sequence (P01116 1-169 isoform P01116-2 G12S): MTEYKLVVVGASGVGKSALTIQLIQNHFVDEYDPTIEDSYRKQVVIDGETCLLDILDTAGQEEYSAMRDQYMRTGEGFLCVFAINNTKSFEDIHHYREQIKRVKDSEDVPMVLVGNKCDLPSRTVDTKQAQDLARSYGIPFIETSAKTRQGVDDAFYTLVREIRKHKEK
How it was run: (§1)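 TR-FRET tracer-displacement readout after 60 min at room temperature, using KRas residues 1-169 (biotinylated) with terbium streptavidin and a Cy5 tracer. Buffer: 50 mM HEPES pH 7.5, 5 mM MgCl2, 0.005% Tween-20, 1 mM DTT, 1% DMSO final. IC50 from 4-parameter fit of POC data.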

KRas WT = molecular target: T5, KRas WT (Homo sapiens, UniProt P01116); experiment: as above; details: 60-minute incubation at room temperature, 1% DMSO, pH 7.5
T5 construct: Biotinylated KRas (corresponding to amino acids 1-169, produced at Accelegan Inc.); biotin (biotinylated); purchased Accelegan Inc
T5 sequence (P01116 1-169 isoform P01116-2): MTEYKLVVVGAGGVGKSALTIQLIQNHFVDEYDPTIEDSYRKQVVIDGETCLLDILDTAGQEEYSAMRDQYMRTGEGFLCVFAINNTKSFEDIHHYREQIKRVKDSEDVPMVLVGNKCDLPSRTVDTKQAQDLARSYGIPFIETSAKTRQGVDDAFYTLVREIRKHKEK
How it was run: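 Biotinylated KRas (residues 1-169) was incubated with tracer, terbium-streptavidin and compound at 1% DMSO final in 50 mM HEPES pH 7.5 containing 5 mM MgCl2, 0.005% Tween-20 and 1 mM DTT. The plate was read after 60 min at room temperature, and percent-of-control data were fit to a 4-parameter IC50 equation.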

KRas G12C = molecular target: T6, KRas G12C (Homo sapiens, UniProt P01116, G12C); experiment: as above; details: 60-minute incubation at room temperature, 1% DMSO, pH 7.5
T6 construct: Biotinylated KRas (corresponding to amino acids 1-169, produced at Accelegan Inc.); biotin (biotinylated); purchased Accelegan Inc
T6 sequence (P01116 1-169 isoform P01116-2 G12C): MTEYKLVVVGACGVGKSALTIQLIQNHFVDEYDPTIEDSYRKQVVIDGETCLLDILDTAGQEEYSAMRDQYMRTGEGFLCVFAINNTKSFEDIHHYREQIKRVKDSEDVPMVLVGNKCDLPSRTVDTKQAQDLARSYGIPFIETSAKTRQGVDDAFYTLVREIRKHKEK
How it was run: as §1

T1 sequence (P01116 1-188 isoform P01116-2): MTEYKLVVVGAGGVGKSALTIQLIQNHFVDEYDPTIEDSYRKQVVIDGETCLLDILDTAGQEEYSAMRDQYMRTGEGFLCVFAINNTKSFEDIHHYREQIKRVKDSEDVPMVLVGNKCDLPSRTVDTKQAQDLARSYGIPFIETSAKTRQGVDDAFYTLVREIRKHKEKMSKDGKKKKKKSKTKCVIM

Row | SMILES | IC50 [1] [nM] | IC50 [2] [nM] | IC50 [3] [nM] | IC50 (KRas G12S) [nM] | IC50 (KRas WT) [nM] | IC50 (KRas G12C) [nM]
1 | CCc1c(F)ccc2cc(O)cc(-c3ncc4c(N5CCC(C(=O)n6ccc(C)n6)CC5)nc(OC[C@@]56CCCN5C/C(=C\F)C6)nc4c3F)c12 [Example 70, (S,Z)-(1-(7-(8-ethyl-7-fluoro-3-hydroxynaphthalen-1-yl)-8-fluoro-2-((2-(fluoromethylene)tetrahydro-1H-pyrrolizin-7a(5H)-yl)methoxy)pyrido[4,3-d]pyrimidin-4-yl)piperidin-4-yl)(3-methyl-1H-pyrazol-1-yl)methanone] | 5100 | 85 | 7290 | 17 | 27 | 31
2 | C#Cc1c(F)ccc2cc(O)cc(-c3ncc4c(N5CCC(C(=O)n6ccc(C)n6)CC5)nc(OC[C@@]56CCCN5C[C@H](F)C6)nc4c3F)c12 [Example 67, (1-(7-(8-ethynyl-7-fluoro-3-hydroxynaphthalen-1-yl)-8-fluoro-2-(((2R,7aS)-2-fluorotetrahydro-1H-pyrrolizin-7a(5H)-yl)methoxy)pyrido[4,3-d]pyrimidin-4-yl)piperidin-4-yl)(3-methyl-1H-pyrazol-1-yl)methanone] | 3290 | 113 | 3080 | 17 | 15 | 51
3 | COCCN(C(C)=O)C(=O)C1CCN(c2nc(OC[C@@]34CCCN3C[C@H](F)C4)nc3c(F)c(-c4ccc(F)c5sc(N)c(C#N)c45)c(Cl)cc23)CC1 [Example 305, N-acetyl-1-(7-(2-amino-3-cyano-7-fluorobenzo[b]thiophen-4-yl)-6-chloro-8-fluoro-2-(((2R,7aS)-2-fluorotetrahydro-1H-pyrrolizin-7a(5H)-yl)methoxy)quinazolin-4-yl)-N-(2-methoxyethyl)piperidine-4-carboxamide] | 78 | 21 | 19 | 17 | 21 | 12
4 | CN(CCNC(=O)n1nccn1)c1nc(OC[C@@]23CCCN2C[C@H](F)C3)nc2c(F)c(-c3ccc(F)c4sc(N)c(C#N)c34)c(Cl)cc12 [Example 213, N-(2-((7-(2-amino-3-cyano-7-fluorobenzo[b]thiophen-4-yl)-6-chloro-8-fluoro-2-(((2R,7aS)-2-fluorotetrahydro-1H-pyrrolizin-7a(5H)-yl)methoxy)quinazolin-4-yl)(methyl)amino)ethyl)-2H-1,2,3-triazole-2-carboxamide] | 387 | 1180 | 10 | 5 | 8 | < 2
5 | CN(CCN(C)c1nc(OC[C@@]23CCCN2C[C@H](F)C3)nc2c(F)c(-c3ccc(F)c4sc(N)c(C#N)c34)c(Cl)cc12)C(=O)n1cncn1 [Example 232, N-(2-((7-(2-amino-3-cyano-7-fluorobenzo[b]thiophen-4-yl)-6-chloro-8-fluoro-2-(((2R,7aS)-2-fluorotetrahydro-1H-pyrrolizin-7a(5H)-yl)methoxy)quinazolin-4-yl)(methyl)amino)ethyl)-N-methyl-1H-1,2,4-triazole-1-carboxamide] | 97 | 234 | 3 | 7 | 12 | 3
6 | CCc1c(F)ccc2cc(O)cc(N3CCc4c(nc(OC[C@@]56CCCN5C[C@H](F)C6)nc4N4CCCCCC(C(=O)n5ccc(C)n5)C4)C3)c12 (stereo partly drawn) [Example 192, (1-(7-(8-ethyl-7-fluoro-3-hydroxynaphthalen-1-yl)-2-(((2R,7aS)-2-fluorotetrahydro-1H-pyrrolizin-7a(5H)-yl)methoxy)-5,6,7,8-tetrahydropyrido[3,4-d]pyrimidin-4-yl)azocan-3-yl)(3-methyl-1H-pyrazol-1-yl)methanone] | 105 | 4250 | 160 | 35 | 23 | 27
